For data set [1], the system named is L6. The data set is described as follows: Cytotoxicity against rat L6 cells after 6 days by resazurin assay. The format is cell-based. Particulars: L6, 144 h. A general note: Resazurin is reduced to fluorescent resorufin, in cell work by metabolically active cells.
The test system of data set [2] is Plasmodium falciparum. The data set is described as follows: Antiplamodial activity against chloroquine-resistant bloodstream forms of Plasmodium falciparum K1 infected in human A+ erythrocytes assessed as growth inhibition after 48 hrs by spectrophotometry. The format is functional, organism-based. Particulars: K1, 48 h.
Data set [3] deals with Trypanosoma brucei. The data set is described as follows: Trypanocidal activity against bloodstream forms of Trypanosoma brucei 221 assessed as growth inhibition after 48 hrs by resazurin assay. The format is functional, organism-based. As to conditions: Trypanosoma brucei, 221, 48 h.
The target in data set [4] is Acetylcholinesterase (Homo sapiens, UniProt P22303). The experiment in a line: Inhibition of human recombinant AChE using acetylthiocholine iodide as substrate preincubated for 20 mins by Ellman method.
Sequence of Acetylcholinesterase (P22303 whole entry, the tested form may be a part): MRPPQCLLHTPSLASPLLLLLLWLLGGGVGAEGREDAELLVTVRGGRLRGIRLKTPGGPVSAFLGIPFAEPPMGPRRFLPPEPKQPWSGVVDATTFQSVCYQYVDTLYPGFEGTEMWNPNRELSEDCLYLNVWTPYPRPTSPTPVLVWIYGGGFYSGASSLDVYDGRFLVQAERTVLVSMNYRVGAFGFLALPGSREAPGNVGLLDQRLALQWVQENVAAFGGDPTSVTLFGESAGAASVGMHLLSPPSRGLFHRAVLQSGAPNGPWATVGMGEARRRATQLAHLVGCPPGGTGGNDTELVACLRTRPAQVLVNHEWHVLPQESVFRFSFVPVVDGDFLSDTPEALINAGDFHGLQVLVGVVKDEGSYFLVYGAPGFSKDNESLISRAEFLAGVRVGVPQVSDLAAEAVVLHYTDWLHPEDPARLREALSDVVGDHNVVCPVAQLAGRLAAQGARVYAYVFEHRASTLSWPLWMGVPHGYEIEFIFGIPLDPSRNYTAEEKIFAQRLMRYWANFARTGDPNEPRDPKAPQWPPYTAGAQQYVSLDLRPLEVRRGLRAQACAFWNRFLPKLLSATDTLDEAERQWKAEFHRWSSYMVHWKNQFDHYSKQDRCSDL
Data set [5] is described as follows: Effective permeability of the compound by PAMPA assay. In kind it is ADME. Particulars: read-out: Peff. In general terms: The PAMPA barrier holds no transporters, so it reflects passive diffusion.
The nature of data set [6]: Selectivity index, ratio of IC50 for rat L6 cells to IC50 for bloodstream forms of Trypanosoma brucei 221. The format is toxicity, cell-based. Particulars: L6 cells versus bloodstream forms of Trypanosoma brucei 221, read-out: Ratio IC50.

As usually defined, the IC50 is the concentration that inhibits the measured activity by half. Usually IC90 stands for the concentration needed for an effect of 90%.

Regarding `CC1=C[C@H]2Cc3nc4cc(Cl)ccc4c(NCCCCCCNc4c5c(nc6cc(Cl)ccc46)C[C@@H]4C=C(C)C[C@H]5C4)c3[C@@H](C1)C2`, the IC50 is 1610 nM in data set [1], greater than 6000 nM in data set [2], 890 nM in data set [3] and 192 nM in data set [4]. Further, the IC90 in data set [3] stood at 1090 nM. Moreover, the Papp in data set [5] stood at 11.1 ×10⁻⁶ cm/s. Besides, the selectivity ratio in data set [6] was found to be 1.8.

As for `CC1=C[C@H]2Cc3nc4cc(Cl)ccc4c(NCCCCCCCCNc4c5c(nc6cc(Cl)ccc46)C[C@@H]4C=C(C)C[C@H]5C4)c3[C@@H](C1)C2`, the IC50 in data set [1] is 4920 nM; in data set [2], greater than 6000 nM; in data set [3], 520 nM; in data set [4], 72.5 nM. Also, the IC90 in data set [3] was determined as 740 nM. Moreover, the Papp in data set [5] amounted to 13.9 ×10⁻⁶ cm/s. The selectivity ratio in data set [6] amounted to 9.5.

Consider `CC1=C[C@H]2Cc3nc4cc(Cl)ccc4c(NCCCCCCCCCCNc4c5c(nc6cc(Cl)ccc46)C[C@@H]4C=C(C)C[C@H]5C4)c3[C@@H](C1)C2`, for which the IC50 was 7710 nM in data set [1], greater than 6000 nM in data set [2], 500 nM in data set [3] and 17.5 nM in data set [4]. Also, the IC90 in data set [3] was found to be 730 nM. Also, the Papp in data set [5] is 8.7 ×10⁻⁶ cm/s. Moreover, the selectivity ratio in data set [6] was determined as 15.4.

Turning to `CC1=C[C@H]2Cc3nc4cc(Cl)ccc4c(NCCCCCCCCCCCCNc4c5c(nc6cc(Cl)ccc46)C[C@@H]4C=C(C)C[C@H]5C4)c3[C@@H](C1)C2`, the IC50 in data set [1] is 28500 nM; in data set [2] it was greater than 6000 nM; in data set [3], 760 nM; in data set [4] it was 431 nM. Moreover, the IC90 in data set [3] stood at 990 nM. Moreover, the Papp in data set [5] came out at 17.4 ×10⁻⁶ cm/s. Further, the selectivity ratio in data set [6] came to 37.5.

Take `CC1=C[C@H]2Cc3nc4cc(Cl)ccc4c(NCc4ccc(CNc5c6c(nc7cc(Cl)ccc57)C[C@@H]5C=C(C)C[C@H]6C5)cc4)c3[C@@H](C1)C2`: the IC50 is 16100 nM in data set [1], greater than 6000 nM in data set [2] and 570 nM in data set [3]. The IC90 in data set [3] turned out to be 750 nM. In addition, the Papp in data set [5] was 8.3 ×10⁻⁶ cm/s. The selectivity ratio in data set [6] is 28.2.

On to `C[C@@H]1CC[C@H]2[C@@H](C)C(=O)O[C@@H]3O[C@@]4(C)CC[C@@H]1[C@]32OO4` [ARTEMISININ], for which the IC50 in data set [2] was 91 nM.

Regarding `CC1=CC2Cc3nc4cc(Cl)ccc4c(N)c3C(C1)C2` (stereo unspecified) [HUPRINE Y], in data set [2], the IC50 was greater than 10000 nM.

The record behind these values is ChEMBL document CHEMBL3351941, “Synthesis and antiprotozoal activity of oligomethylene- and p-phenylene-bis(methylene)-linked bis(+)-huprines” (Bioorg Med Chem Lett, 2014).
